Reference: US8124647B2 (priority 2002, dated 2012)

Tests used:
human androgen receptor [1] = biological target: T1, human androgen receptor (Homo sapiens, UniProt P10275); experiment: cell-based; conditions: in the presence of 1 nM DHT
T1 construct: expressed in transfected cells; host or cells: CHO cells, cell line CHO-AR-pMMTV-LUC 1G12-A5-CA
T1 sequence (P10275 1-920): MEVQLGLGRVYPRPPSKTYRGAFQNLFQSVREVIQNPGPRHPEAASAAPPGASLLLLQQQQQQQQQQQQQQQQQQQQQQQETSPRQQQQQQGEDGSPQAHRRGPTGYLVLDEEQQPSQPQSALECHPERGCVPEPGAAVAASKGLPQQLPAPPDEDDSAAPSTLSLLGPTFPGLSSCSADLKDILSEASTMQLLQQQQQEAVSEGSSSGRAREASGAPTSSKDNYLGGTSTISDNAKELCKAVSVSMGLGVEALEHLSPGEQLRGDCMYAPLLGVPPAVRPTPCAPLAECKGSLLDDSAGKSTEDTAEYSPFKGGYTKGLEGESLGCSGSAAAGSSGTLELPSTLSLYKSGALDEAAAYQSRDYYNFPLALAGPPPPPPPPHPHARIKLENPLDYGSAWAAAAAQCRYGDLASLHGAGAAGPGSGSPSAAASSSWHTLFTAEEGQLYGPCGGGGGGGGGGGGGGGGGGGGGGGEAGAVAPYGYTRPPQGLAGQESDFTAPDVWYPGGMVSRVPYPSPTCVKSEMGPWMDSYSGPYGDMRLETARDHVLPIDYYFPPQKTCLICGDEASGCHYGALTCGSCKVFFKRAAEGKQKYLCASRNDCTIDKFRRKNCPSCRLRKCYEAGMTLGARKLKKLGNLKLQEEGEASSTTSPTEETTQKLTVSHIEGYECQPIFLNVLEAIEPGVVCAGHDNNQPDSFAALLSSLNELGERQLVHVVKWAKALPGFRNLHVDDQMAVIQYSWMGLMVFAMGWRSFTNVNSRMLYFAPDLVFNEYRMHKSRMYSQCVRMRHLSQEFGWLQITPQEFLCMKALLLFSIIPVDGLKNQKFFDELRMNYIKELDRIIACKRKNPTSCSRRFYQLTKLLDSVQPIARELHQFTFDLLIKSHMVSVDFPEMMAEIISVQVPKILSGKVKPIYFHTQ
Description: (§1) Compounds were tested for their Androgen Receptor activity in a transactivation assay and in a binding assay.
(§2) The (anti-)androgenic activity of test compounds (EC50 and intrinsic activity) was determined in an in vitro bioassay of Chinese hamster ovary (CHO) cells stably transfected with the human androgen receptor expression plasmid and a reporter plasmid in which the MMTV-promoter is linked to the luciferase reporter gene. The cell-line CHO-AR-pMMTV-LUC 1G12-A5-CA is described in Schoonen et al. (2000), Journal of Steroid Biochemistry and Molecular Biology 74(4):213-222. The antiandrogenic activity of a test compound was determined by the inhibition of the transactivation via the androgen receptor of the enzyme luciferase in the presence of 1 nM DHT (5α-dihydrotestosterone, 17β-hydroxy-5α-androstan-3-one). Intrinsic activity of antiandrogenic activity was determined in the presence of the reference antiandrogen 2-Hydroxy-2-methyl-N-(4-nitro-3-trifluoromethyl-phenyl)-propionamide(Hydroxyflutamide), and set at 100%. For androgenic activity, maximal intrinsic activity in the presence of 100 nM DHT was set at 100%.

human androgen receptor [2] = biological target: T1, human androgen receptor; experiment: androgenic activity (EC50 and intrinsic activity), transactivation bioassay in CHO-AR-pMMTV-LUC cells (Table 4); assay type: cell-based
Description: as §1, §2

[3] = antiandrogenic activity, read-out: ant EC50
[4] = androgenic activity, read-out: ago EC50

Compound | EC50 (human androgen receptor [1]; [3]) [nM] | EC50 (human androgen receptor [2]; [4]) [nM] | EC50 (human androgen receptor [1]; ant EC50, antiandrogenic activity) [nM] | EC50 (human androgen receptor [2]; ago EC50, androgenic activity) [nM]
COc1ccc2c(Sc3cccc[n+]3[O-])cn(Cc3cc(F)cc(F)c3)c2c1 [Compound 66] | 5 to 100 | < 1000 | – | –
COc1ccc2c(Sc3ccccc3[N+](=O)[O-])cn(Cc3cccc(Cl)c3)c2c1 [Compound 67] | > 10000 | 5 to 100 | – | –
COc1ccc2c(Sc3ccccc3[N+](=O)[O-])cn(Cc3cccc(C#N)c3)c2c1 [Compound 68] | > 10000 | < 5 | – | –
COc1ccc2c(Sc3ccccc3[N+](=O)[O-])cn(Cc3cc(F)cc(C(F)(F)F)c3)c2c1 [Compound 69] | > 10000 | 5 to 100 | – | –
COc1ccc2c(Sc3ccccc3[N+](=O)[O-])cn(Cc3cc(F)ccc3C(F)(F)F)c2c1 [Compound 70] | > 10000 | 5 to 100 | – | –
COc1ccc2c(Sc3ccccc3[N+](=O)[O-])cn(Cc3cccc(F)c3)c2c1 [Compound 71] | > 10000 | < 5 | – | –
COc1cccc(Cn2cc(Sc3ccccc3[N+](=O)[O-])c3ccc(OC)cc32)c1 [Compound 72] | > 10000 | 5 to 100 | – | –
COc1ccc2c(Sc3ccccc3[N+](=O)[O-])cn(Cc3cccc(C)c3)c2c1 [Compound 73] | > 10000 | 5 to 100 | – | –
COc1ccc2c(Sc3ccccc3[N+](=O)[O-])cn(Cc3cccc([N+](=O)[O-])c3)c2c1 [Compound 74] | – | – | > 10000 | < 5
COc1ccc2c(Sc3ccccc3[N+](=O)[O-])cn(Cc3cccnc3)c2c1 [Compound 75] | > 10000 | < 5 | – | –
COc1ccc2c(Sc3ccccc3[N+](=O)[O-])cn(Cc3ccc(Cl)c(C(F)(F)F)c3)c2c1 [Compound 76] | > 10000 | < 1000 | – | –
COc1ccc2c(Sc3ccccc3[N+](=O)[O-])cn(Cc3cccc(OC(F)(F)F)c3)c2c1 [Compound 77] | > 10000 | 5 to 100 | – | –
COc1ccc2c(Sc3ccccc3[N+](=O)[O-])cn(Cc3cccc(C(F)(F)F)c3)c2c1 [Compound 78] | > 10000 | 5 to 100 | – | –
COc1ccc2c(Sc3ccccc3[N+](=O)[O-])cn(Cc3csc(C)n3)c2c1 [Compound 79] | > 10000 | 5 to 100 | – | –
COc1ccc2c(Sc3ccccc3[N+](=O)[O-])cn(Cc3c(C)noc3C)c2c1 [Compound 80] | < 1000 | < 1000 | – | –
COc1ccc2c(Sc3ccccc3[N+](=O)[O-])cn(Cc3ccc(Cl)cc3)c2c1 [Compound 81] | < 5 | < 1000 | – | –
COc1ccc2c(Sc3ccccc3[N+](=O)[O-])cn(Cc3ccc(C#N)cc3)c2c1 [Compound 82] | > 10000 | 5 to 100 | – | –
COc1ccc2c(Sc3ccccc3[N+](=O)[O-])cn(Cc3ccc(F)cc3)c2c1 [Compound 83] | > 10000 | 5 to 100 | – | –
COc1ccc(Cn2cc(Sc3ccccc3[N+](=O)[O-])c3ccc(OC)cc32)cc1 [Compound 84] | 1000 to 10000 | < 1000 | – | –
COc1ccc2c(Sc3ccccc3[N+](=O)[O-])cn(Cc3ccc(C)cc3)c2c1 [Compound 85] | > 10000 | < 1000 | – | –
COc1ccc2c(Sc3ccccc3[N+](=O)[O-])cn(Cc3cnc(Cl)s3)c2c1 [Compound 87] | > 10000 | 5 to 100 | – | –
COc1ccc2c(Sc3ccccc3[N+](=O)[O-])cn(Cc3ccc(Cl)s3)c2c1 [Compound 88] | > 10000 | 5 to 100 | – | –
